Source: PMC2880888 (Journal of medicinal chemistry, 2010)

Experiments:
[1] = system: control 1321N1 astrocytoma cells; experiment: calcium flux in control 1321N1 astrocytoma cells; type: cell-based, human; conditions: 10 µM, non-transfected 1321N1 astrocytoma cells
[2] = stability of the C-O-P bond in aqueous medium at pH 1.5; type: physicochemical; conditions: aqueous medium at pH 1.5, over 24 h
[3] = hydrolysis of the 5’-phosphate in the presence of mammalian cell membranes; type: in vitro ADME; conditions: incubation at 37°C with 1321N1 astrocytoma cell membranes (data not shown)
aorta ring preparations = conditions: cited from earlier work
CSQ-overexpressing mouse = conditions: Alzet mini-osmotic pump; cited from earlier work
cardiac P2X receptor = conditions: cited from earlier work

CSc1nc(N)c2ncn([C@@H]3O[C@H](COP(=O)(O)OP(=O)(O)O)[C@@H](O)[C@H]3O)c2n1 [Compound 2-MeSADP, 2-MeSADP]
change in intracellular Ca2+ in control cells [1]: no change

Nc1nc(Cl)nc2c1ncn2[C@H]1[C@H](O)[C@H](O)[C@@]2(COP(=O)(O)O)C[C@H]12 [Compound 3, (1’S,2’R,3’S,4’R,5’S)-4-(6-amino-2-chloro-9H-purin-9-yl)-1-[phosphoryloxymethyl] bicyclo[3.1.0]hexane-2,3-diol]
stability of the C-O-P bond [2]: stable | hydrolysis of the 5’-phosphate [3]: considerable hydrolysis | vasodilator action (aorta ring preparations): devoid of any vasodilator action | longevity compared to vehicle-injected mice (CSQ-overexpressing mouse): significantly increased longevity | current induced in the CSQ myocyte (cardiac P2X receptor; CSQ myocyte): induced a current

CNc1nc(I)nc2c1ncn2[C@H]1C[C@H](OP(=O)(O)O)[C@]2(COP(=O)(O)O)C[C@H]12 [MRS2500]
block of the membrane current evoked by 3 (cardiac P2X receptor; voltage clamp in mouse cardiac myocytes): could not block
